According to patent US20080274544A1, “Promotor for Introducing Extracellular Substance into Mammalian Ovum and Introduction Method” (priority 2005, published 2008):
Entries after “also recorded” stand apart in the source; their conditions may differ.

What was measured:
[1] = test system: zona pellucida-free mouse unfertilized oocytes; assay: In vitro fertilization of zona pellucida-free oocytes, sperm-oocyte fusion; format: cell-based; settings: for number of sperm which fused with the oocytes: zona pellucida-free oocytes, 1 hr after insemination, oocytes cultured 1 hr in 20 μM vinblastine or 10 μM paclitaxel, compared with untreated control (FIG. 1)
Procedure: (§1) • (1) Mice of eight week-old or older were purchased and made adapted to grow environment for 1 week before use. PMS (Serotoropin exclusive to animal, manufactured by ASUKA Pharmaceutical) was injected in an amount of 0.1 ml into the abdominal cavity of the mouse at 8:00 pm. • (2) 48 hr later, HCG (Gonadotropin exclusive to animal, manufactured by ASUKA Pharmaceutical) was injected in an amount of 0.1 ml into the abdominal cavity. • (3) Mice were euthanized the next day (14 to 16 hr after HCG injection), and the ampulla of oviduct was removed. An oocyte surrounded by cumulus cells was collected and cultured in a (100 μL) drop of TYH medium. • (4) Cumulus cells were removed by hyaluronidase (300 μg/mL) treatment, then the oocyte was cultured in TYH medium for 3 hr. In the case of conducting removal of zona pellucida, oocyte zona pellucida was removed by an acid Tyrode's solution treatment followed by culturing the oocyte in TYH medium for 3 hr. 2. Treatment with a Tubulin-Polymerization Inhibitor
(§2) The collected unfertilized oocyte of the mice was treated by using vinblastine (VB) as a tubulin-polymerization inhibitor. As controls, an oocyte treated with paclitaxel (Pac; Brand Name: taxol), tubulin-polymerization promoter, and an untreated oocyte (control) were used. Vinblastine (VB) treatment was conducted by culturing the oocyte in 20 μM of vinblastine solution (TYH medium) for 1 hr, while paclitaxel (Pac) treatment was conducted by culturing the oocyte in 10 μM of paclitaxelel (Pac) solution (TYH medium) similarly for 1 hr.
The mouse unfertilized oocyte was treated with vinblastine (VB), a tubulin-polymerization inhibitor, and in vitro fertilization was conducted with mouse sperm. […]
(In the case where zona pellucida-free oocytes were use): To quantify sperm-oocyte fusion efficiency, zona pellucida-free mouse unfertilized oocytes were treated with vinblastine (VB), a tubulin-polymerization inhibitor, or paclitaxel (Pac), tubulin-polymerization promoter, or left untreated (control). […]

[2] = test system: mouse unfertilized oocytes with zona pellucida; assay: In vitro fertilization of oocytes with zona pellucida, fertilization efficiency; format: cell-based
Procedure: as §1, §2
The mouse unfertilized oocyte was treated with vinblastine (VB), a tubulin-polymerization inhibitor, and in vitro fertilization was conducted with mouse sperm. As controls, an unfertilized oocyte treated with paclitaxel (Pac; Brand Name: taxol), tubulin-polymerization promoter, and an untreated oocyte (control) were used. […]

Row | Compound | sperm-oocyte membrane fusion ([1]; mouse unfertilized oocyte treated with tubulin-polymerization promoter) | number of sperm which fused with the oocytes [1] | increase of fertilization efficiency compared to untreated oocytes ([2]; 2-cell-stage oocytes, oocytes cultured 1 hr in 20 μM vinblastine (FIG. 2)) | fusion efficiency of oocytes treated with anti-mouse CD9 antibody having a fusion-inhibitory effect ([2]; vinblastine treatment together with anti-mouse CD9 antibody) | fusion of immature oocytes with sperm ([2]; vinblastine-treated immature oocytes)
1 | CC(=O)O[C@H]1C(=O)[C@@]2(C)[C@H]([C@H](OC(=O)c3ccccc3)[C@]3(O)C[C@H](OC(=O)[C@H](O)[C@@H](NC(=O)c4ccccc4)c4ccccc4)C(C)=C1C3(C)C)[C@]1(OC(C)=O)CO[C@@H]1C[C@@H]2O [paclitaxel] | inhibited | not fused | – | – | –
2 | CC[C@]1(O)C[C@@H]2CN(CCc3c([nH]c4ccccc34)[C@@](C(=O)OC)(c3cc4c(cc3OC)N(C)[C@H]3[C@@](O)(C(=O)OC)[C@H](OC(C)=O)[C@]5(CC)C=CCN6CC[C@]43[C@@H]65)C2)C1 [vinblastine] | – | largest number | 20% | increased | could be fused with sperm; also recorded: could fuse with sperm
